What was measured:
Type in all cases: cell-based
M3 muscarinic receptor = target: T1, M3 muscarinic receptor (Homo sapiens, UniProt P20309); experiment: Functional mobilization of intracellular calcium (FLIPR) in CHO cells expressing M3; details: for EC50: CHO cells expressing M3, FLIPR calcium; for Emax: CHO, 100% = maximum response obtained with the Carbachol control, read-out: M3 Efficacy
T1 construct: expressed in transfected cells; host or cells: CHO (M3-CHO)
In short: (§1)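 Calcium flux is read on FLIPR over 60 sec at 488/540 nm in muscarinic-receptor CHO lines. Antagonist mode adds carbachol at EC80 after 15 min compound preincubation or with simultaneous co-application. Agonist mode adds compound alone. Cells carry Fluo-3 or Calcium 3 dye in probenecid-containing pH 7.4 buffer, 0.5% DMSO final.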

M4 muscarinic receptor = target: T2, M4 muscarinic receptor (Homo sapiens, UniProt P08173); experiment: Functional mobilization of intracellular calcium (FLIPR) in CHO cells expressing M4; details: for EC50: CHO cells expressing M4, FLIPR calcium; for Emax: CHO, 100% = maximum response obtained with the Carbachol control, read-out: M4 Efficacy
T2 construct: expressed in transfected cells; host or cells: CHO (M4-CHO)
T2 sequence (P08173 1-479): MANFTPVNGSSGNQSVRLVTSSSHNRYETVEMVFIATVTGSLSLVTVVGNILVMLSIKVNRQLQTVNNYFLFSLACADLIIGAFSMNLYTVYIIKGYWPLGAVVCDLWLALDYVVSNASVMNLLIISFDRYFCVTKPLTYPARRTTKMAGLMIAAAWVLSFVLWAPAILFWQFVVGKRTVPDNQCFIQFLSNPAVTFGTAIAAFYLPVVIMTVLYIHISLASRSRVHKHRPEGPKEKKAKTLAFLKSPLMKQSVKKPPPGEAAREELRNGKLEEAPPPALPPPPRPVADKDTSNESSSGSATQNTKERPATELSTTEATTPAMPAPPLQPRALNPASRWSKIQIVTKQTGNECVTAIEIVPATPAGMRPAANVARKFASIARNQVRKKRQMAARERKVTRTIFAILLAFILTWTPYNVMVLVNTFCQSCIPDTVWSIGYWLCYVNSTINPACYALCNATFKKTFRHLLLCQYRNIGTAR
In short: as §1

M1 muscarinic receptor = target: T3, M1 muscarinic receptor (Homo sapiens, UniProt P11229); experiment: Functional mobilization of intracellular calcium (FLIPR) in CHO cells expressing M1; details: for EC50: CHO cells expressing M1, FLIPR calcium; for Emax: CHO, 100% = maximum response obtained with the Carbachol control, read-out: M1 Efficacy
T3 construct: expressed in transfected cells; host or cells: CHO (M1-CHO)
T3 sequence (P11229 1-460): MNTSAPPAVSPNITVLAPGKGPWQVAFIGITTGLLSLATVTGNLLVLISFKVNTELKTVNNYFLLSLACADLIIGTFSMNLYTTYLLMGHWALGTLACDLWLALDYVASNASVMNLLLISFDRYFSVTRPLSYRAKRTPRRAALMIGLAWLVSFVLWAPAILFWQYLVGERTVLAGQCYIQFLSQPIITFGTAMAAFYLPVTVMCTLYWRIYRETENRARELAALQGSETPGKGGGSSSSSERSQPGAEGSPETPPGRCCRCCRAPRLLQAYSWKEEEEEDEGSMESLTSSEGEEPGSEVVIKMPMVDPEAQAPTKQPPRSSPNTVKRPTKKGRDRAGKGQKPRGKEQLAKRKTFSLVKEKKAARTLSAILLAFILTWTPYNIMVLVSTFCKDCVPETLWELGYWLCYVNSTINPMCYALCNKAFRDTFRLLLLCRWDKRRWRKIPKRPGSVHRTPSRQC
In short: as §1

M2 muscarinic receptor = target: T4, M2 muscarinic receptor (Homo sapiens, UniProt P08172); experiment: Functional mobilization of intracellular calcium (FLIPR) in CHO cells expressing M2; details: for EC50: CHO cells expressing M2, FLIPR calcium; for Emax: CHO, 100% = maximum response obtained with the Carbachol control, read-out: M2 Efficacy
T4 construct: expressed in transfected cells; host or cells: CHO (M2-CHO)
T4 sequence (P08172 1-466): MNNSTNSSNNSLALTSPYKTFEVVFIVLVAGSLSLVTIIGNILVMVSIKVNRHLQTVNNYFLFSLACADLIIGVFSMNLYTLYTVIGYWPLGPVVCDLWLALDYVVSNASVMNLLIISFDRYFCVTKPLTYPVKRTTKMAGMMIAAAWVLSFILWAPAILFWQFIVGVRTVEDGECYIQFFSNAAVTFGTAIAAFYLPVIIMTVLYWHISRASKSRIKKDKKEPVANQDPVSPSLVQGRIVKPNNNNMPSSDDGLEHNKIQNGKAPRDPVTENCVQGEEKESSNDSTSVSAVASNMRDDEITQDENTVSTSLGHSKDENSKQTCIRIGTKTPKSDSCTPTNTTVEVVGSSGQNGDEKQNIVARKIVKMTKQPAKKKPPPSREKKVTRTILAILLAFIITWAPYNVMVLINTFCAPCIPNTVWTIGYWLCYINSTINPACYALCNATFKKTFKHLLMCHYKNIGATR
In short: as §1

T1 sequence (P20309 whole entry): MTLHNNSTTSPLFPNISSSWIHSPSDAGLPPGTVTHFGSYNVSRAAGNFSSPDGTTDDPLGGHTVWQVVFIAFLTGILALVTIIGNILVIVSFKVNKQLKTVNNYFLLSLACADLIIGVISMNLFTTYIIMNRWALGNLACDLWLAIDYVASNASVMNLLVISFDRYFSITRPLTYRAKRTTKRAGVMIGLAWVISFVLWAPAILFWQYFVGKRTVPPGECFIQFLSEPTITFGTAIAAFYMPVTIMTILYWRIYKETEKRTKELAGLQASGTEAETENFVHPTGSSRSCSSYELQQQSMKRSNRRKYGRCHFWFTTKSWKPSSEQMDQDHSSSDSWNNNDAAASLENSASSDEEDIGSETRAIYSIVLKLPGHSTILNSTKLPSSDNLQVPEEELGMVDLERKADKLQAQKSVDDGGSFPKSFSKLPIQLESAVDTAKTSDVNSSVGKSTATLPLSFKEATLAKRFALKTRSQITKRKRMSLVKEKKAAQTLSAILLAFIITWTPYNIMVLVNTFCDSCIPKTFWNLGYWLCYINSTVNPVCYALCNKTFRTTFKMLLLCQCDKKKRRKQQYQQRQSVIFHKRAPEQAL

| Structure (SMILES) | EC50 (M3 muscarinic receptor) | Emax (M3 muscarinic receptor) | EC50 (M4 muscarinic receptor) | Emax (M4 muscarinic receptor) | EC50 (M1 muscarinic receptor) | Emax (M1 muscarinic receptor) | EC50 (M2 muscarinic receptor) | Emax (M2 muscarinic receptor) |
| --- | --- | --- | --- | --- | --- | --- | --- | --- |
| CC(C)(C)CCN1CCC2(CC[C@@H](NC(=O)C3CCCO3)c3ccc(F)cc32)CC1 (stereo partly shown) [compound 133] | > 5 µM | < 25% | < 2 µM | 25 to 100% | < 2 µM | 25 to 100% | < 2 µM | 25 to 100% |
| CC(C)(C)CCN1CCC2(CC[C@@H](NC(=O)Cc3cccnc3)c3ccccc32)CC1 [compound 134] | > 5 µM | < 25% | < 2 µM | 25 to 100% | > 5 µM | < 25% | > 5 µM | < 25% |
| CC(C)(C)CCN1CCC2(CC[C@H](NC(=O)CC3CCOCC3)c3ccccc32)CC1 [compound 135] | > 5 µM | < 25% | < 2 µM | 25 to 100% | < 2 µM | 25 to 100% | > 5 µM | < 25% |
| CCN(C(=O)Cc1cccnc1)[C@H]1CCC2(CCN(CCC(C)(C)C)CC2)c2ccccc21 [compound 136] | > 5 µM | < 25% | < 2 µM | 25 to 100% | 2 to 5 µM | 25 to 100% | 2 to 5 µM | < 25% |
| C[C@@H](C(=O)N[C@H]1CCC2(CCN(CCC(C)(C)C)CC2)c2ccccc21)N1CCCC1=O [compound 137] | > 5 µM | < 25% | < 2 µM | 25 to 100% | < 2 µM | 25 to 100% | > 5 µM | < 25% |
| CC(C)(C)CCN1CCC2(CC[C@H](NC(=O)CCN3CCCC3=O)c3ccc(F)cc32)CC1 [compound 138] | > 5 µM | < 25% | < 2 µM | 25 to 100% | < 2 µM | 25 to 100% | < 2 µM | 25 to 100% |
| C[C@@H](O)CC(=O)N[C@@H]1CCC2(CCN(CCC(C)(C)C)CC2)c2ccccc21 [compound 139] | > 5 µM | < 25% | < 2 µM | 25 to 100% | 2 to 5 µM | < 25% | > 5 µM | < 25% |
| CCOCC(=O)N(CC)[C@H]1CCC2(CCN(CCC(C)(C)C)CC2)c2ccccc21 [compound 140] | > 5 µM | < 25% | < 2 µM | 25 to 100% | 2 to 5 µM | 25 to 100% | > 5 µM | < 25% |
| CC#CCN(C(C)=O)[C@H]1CCC2(CCN(CCC(C)C)CC2)c2ccccc21 [compound 141] | > 5 µM | < 25% | < 2 µM | 25 to 100% | < 2 µM | 25 to 100% | > 5 µM | < 25% |
| CC(C)CCN1CCC2(CC[C@H](N3C(=O)CCC3=O)c3ccccc32)CC1 [compound 142] | > 5 µM | < 25% | > 5 µM | < 25% | 2 to 5 µM | 25 to 100% | > 5 µM | < 25% |
| CC(=O)N1CCCC(C(=O)N[C@@H]2CCC3(CCN(CCC(C)(C)C)CC3)c3ccccc32)C1 (stereo partly shown) [compound 143] | > 5 µM | < 25% | < 2 µM | 25 to 100% | 2 to 5 µM | 25 to 100% | > 5 µM | < 25% |

Reference: patent US8003660B2, “Modulators of muscarinic receptors” (Vertex Pharmaceuticals Incorporated, priority 2006, dated 2011)
